# Reference: US8044103B2, “Cyclic dipeptides and azetidinone compounds and their use in treating CNS injury and neurodegenerative disorders” (Georgetown University, priority 1998, dated 2011)
# Key:
# [1] = system: rats following moderate fluid percussion injury; experiment: Mortality after moderate fluid percussion injury; format: in vivo, Male Sprague-Dawley rats; conditions: 1 mg/kg i.v. 30 min following moderate fluid percussion injury; died before the end of the study; saline 21.4% and 37.5%
# Description: Rats were anesthetized with sodium pentobarbital (70 mg/kg i.p.), intubated, and implanted with femoral venous and arterial catheters. Brain temperature was assessed indirectly through a thermister in the temporalis muscle. Body temperature was maintained through a feedback-controlled heating blanket. Blood pressure was continuously monitored, and arterial blood gases analyzed periodically. After the animal was placed in a stereotaxic frame, the scalp and temporal muscle were reflected, and a small craniotomy (5 mm) located midway between the lambda and bregma sutures over the left parietal cortex allowed insertion of a Leur-Loc that is cemented in place. The fluid-percussion head injury device, manufactured by the Medical College of Virginia, consists of a plexiglass cylindrical reservoir filled with isotonic saline; one end includes a transducer that is mounted and connected to a 5 mm tube that attaches through a male Leur-Loc fitting to the female Leur-Loc cemented at the time of surgery. A pendulum strikes a piston at the opposite end of the device, producing a pressure pulse of approximately 22 msec duration, leading to deformation of underlying brain. The degree of injury is related to the pressure pulse, expressed in atmospheres (atm): 2.6 atm in our laboratory produces a moderate injury with regard to neurological and histological deficit. Sham (control) animals undergo anesthesia and surgery without fluid percussion brain injury. […]
# (§1) Continuous variables compared across groups were examined using an analysis of variance (ANOVA) followed by Bonferroni correction (rightin reflex). Continuous variables subjected to repeated measurements over a period of time (cardiovascular and core temperature measurements) were analyzed using a repeated measurements ANOVA followed by Tukey's pairwise comparison at each time point. Ordinal measurements (composite neurological scores) were evaluated using the non-parametric Kruskal-Wallis ANOVA with individual, non-parametric Mann-Whitney U-tests. […]
# [2] = system: traumatic spinal cord injury; conditions: in vivo; cited from earlier work
# [3] = system: mice following controlled cortical impact injury (CCI); experiment: Beam walking task after controlled cortical impact injury (chronic neurological recovery); format: in vivo, Male C57Bl/6 mice; conditions: 1 mg/kg following CCI injury; small group size (n=6)
# Description: Male C57Bl/6 mice (20-25 g) were obtained from Taconic Farms (Germantown, N.Y.) and housed in an area directly adjoining surgical and behavioral rooms for at least 1 week prior to any procedures. All mice were maintained at a constant temperature (22±2° C.) and a 12 hr light/dark cycle, with lights on at 6 am and all behavioral testing performed during the light cycle. Food and water were available ad libitumn.
# The injury device consisted of a microprocessor-controlled pneumatic impactor with a 3.5 mm diameter tip. The impactor is vertically mounted on a mill table (Sherline, USA) which allows for precise adjustment in the vertical plane above the mouse head, which itself is secured to a stereotaxic apparatus (David Kopf Instruments, CA) attached to the instrument. The core rod of a linear voltage differential transducer (LVDT, Serotec, USA) is attached to the lower end of the impactor to allow measurement of velocities between 3.0 and 9.0 m/s. Velocity of the impactor is controlled by fine tuning both positive and negative (back) air pressures. An oscilloscope (Tektronix, USA) records the time/displacement curve produced by the downward force on the LVDT, allowing precise measurement of the impactor velocity.
# Surgical anesthesia was induced and maintained with 4% and 2% isoflurane respectively, using a flow rate of 1.0-1.5 l oxygen per minute. Depth of anesthesia was assessed by monitoring respiration rate and palpebral and pedal-withdrawal reflexes. The animal was then placed onto a heated pad and core body temperature was monitored and maintained at 38+/−0.2° C. The head was mounted in a stereotaxic frame and the surgical site clipped and prepared with a series of three Nolvasan scrubs followed by sterile saline rinses. A 10 mm mid-line incision was made over the skull, the skin and fascia reflected, and a 4 mm craniotomy made on the central aspect of the left parietal bone with a tissue punch (Roboz, USA). Great care was taken with the removal of the parietal bone to avoid injury to the underlying dura mater which was continuously bathed in sterile normal saline warmed to 37.5° C. The impounder tip of the pneumatic injury device was cleaned with a pad, soaked in absolute alcohol, positioned to the surface of the exposed dura and automatically withdrawn the 44 mm stroke distance. Following injury at a moderate (6.0 m/s velocity, 1 mm tissue deformation depth) level, the incision was closed with interrupted 6-0 silk sutures, anaesthesia was discontinued and the mouse was placed into a heated cage to maintain normothermia for 45 minutes post-injury. All animals were monitored carefully for at least 4 hours post-surgery and then daily. To minimize variation between animals due to anaesthesia during acute neurological testing, 20 minutes was allowed for surgery and 5 minutes for suturing for each animal.
# Conscious mice were placed in a mouse restrainer and injected via the lateral tail vein with either normal saline (injured controls; n=6), 1 mg/kg Compound 2a (n=8), Compound 10b (n=6), Compound 11b (n=6) or Compound 14c (n=6) at 30 minutes following controlled cortical impact injury (CCI). The values for n represents the number of mice in the particular treatment group. The investigator was blinded to drug treatment both at the time of surgery and for neurological and behavioral scoring.
# Chronic neurological recovery was evaluated for all animals using a beam walking task, a method which is particularly good at discriminating fine motor coordination differences between injured and sham-operated animals. The device consisted of a narrow wooden beam 6 mm wide and 120 mm in length which was suspended 300 mm above a 60 mm-thick foam rubber pad. The mouse was placed on one end of the beam and the number of footfaults for the right hindlimb recorded over 50 steps counted in either direction on the beam. A basal level of competence at this task was established before surgery with an acceptance level of <10 faults per 50 steps. […]
# [4] = system: lightly anesthetized rats; experiment: Latency to recover righting reflex after light anesthesia (analeptic study); format: in vivo; conditions: i.v., doses of 1 mg/kg and 10 mg/kg (FIG. 11); after 40 mg/kg i.p. sodium pentobarbitone
# Description: (§2) Additional groups of uninjured rats were tested for autonomic and analeptic responses immediately prior to and up to 60 min. following drug administration. For the analeptic study, rats were first anesthetized with 40 mg/kg i.p. sodium pentabarbitone and placed onto an unheated pad on the laboratory bechtop at room temperature (22±2° C.). A thermister probe was placed in the rectum to measure core body temperature. After a 10 min. period, rats were administered vehicle or drug as described below via the tail vein. Time to recovery of the righting-reflex was subsequently determined while temperature was recorded at 5 min. intervals for all animals. […]
# as §1
# [5] = system: fully conscious and unrestrained rats; experiment: Mean arterial blood pressure in conscious unrestrained rats (autonomic study); format: in vivo; conditions: 1 mg/kg i.v., over the duration of testing
# Text: To assess autonomic responses to the novel TRH analogues, a separate group of rats were anesthetized with 4% isoflurane (1.5 L/min). Catheters were then placed into the right artoid artery and right jugular vein and exteriorized at the back of the neck. Rats were separated one per cage and allowed to recover from anesthesia. The exteriorized catheters were suspended above the rat to prevent biting. Mean […] blood pressure (MAP) was continuously recorded via a transducer connected directly to the arterial catheter for the duration of the study. At 1 h following catheter placement, rats were administered vehicle or drug via the catheter in the jugular vein as described below. […]
# as §1
# [6] = system: lightly anesthetized rats; experiment: Core body temperature in lightly anesthetized uninjured rats (analeptic study); format: in vivo; conditions: 1 mg/kg i.v.; over 60 min following anesthesia; p<0.001 vs all other groups at 20-60 min
# Description: as §2, §1
# rats following trauma = conditions: cited from earlier work
# [7] = system: central facilitating activity; conditions: cited from earlier work
# [8] = system: head impact trauma in mice; conditions: cited from earlier work
# [9] = in vivo; cited from earlier work
# [10] = system: traumatic spinal cord injury in cats; conditions: cited from earlier work
# [11] = system: cats subjected to brainstem compression; conditions: cited from earlier work
smiles,measurement,setting,value
"CC(C)(C)SC[C@@H]1NC(=O)[C@@H]2CCCN2C1=O [Compound 4a, Cyclo(t-Butyl-Cys-Pro)]",mortality rate,[1],0%
CC1(C)CCN(C(=O)[C@H](Cc2cnc[nH]2)NC(=O)[C@@H]2CCC(=O)N2)[C@@H]1C(N)=O [RX-77368],outcome following traumatic spinal cord injury,[2],ineffective
"O=C1NC2(CC2)C(=O)N2CCC[C@@H]12 [Compound 1a, Cyclo [(1-Amino-1-Cyclopropane-Carboxylic Acid)-Pro]]",mortality rate,[1],28.6%
NC(=O)[C@@H]1CCCN1C(=O)[C@H](Cc1cnc[nH]1)NC(=O)c1cc(=O)[nH]c(=O)[nH]1 [CG3509],outcome following traumatic spinal cord injury,[2],improve outcome
NC(=O)[C@@H]1CCCN1C(=O)C1(NC(=O)[C@@H]2CC(=O)N2)CCCCC1 [Compound 11b],performance deficits in the beamwalking task compared with saline vehicle,[3],attenuated
"NC(=O)[C@@H]1CCCN1C(=O)[C@H](Cc1cnc[nH]1)NC(=O)[C@@H]1CC(=O)N1 [YM-14673, N^α-[(S)-4-Oxo-Azetidine-2-Carbonyl]-L-Histidyl-L-Prolinamide]",latency to recovery of righting reflex compared with saline,[4],significantly attenuated
same,mean arterial blood pressure (MAP) compared with vehicle / other groups,[5],significantly higher MAP
same,core temperature maintained,[6],37-38 °C
same,chronic neurological recovery following trauma,rats following trauma,improved chronic neurological recovery
same,duration of action relative to TRH (longer acting),[7],8-36 times
same,potency relative to TRH,[7],10-100 times
NC(=O)[C@H]1CSCN1C(=O)[C@H](Cc1cnc[nH]1)NC(=O)[C@@H]1CCCC(=O)N1 [MK-771],outcome following traumatic spinal cord injury,[2],ineffective
C[C@H]1SC[C@@H](C(=O)N[C@H](Cc2c[nH]cn2)C(=O)N2CCC[C@H]2C(N)=O)NC1=O [CG3703],outcome following traumatic spinal cord injury,[2],improve outcome
"NC(=O)[C@@H]1CCCN1C(=O)[C@H](Cc1cnc[nH]1)NC(=O)[C@@H]1CCC(=O)N1 [TRH, L-pyroglutamyl-L-histidyl-L-prolinamide]",postconcussional behavioral suppression following head impact trauma,[8],shorten postconcussional behavioral suppression
same,plasma half-life,[9],4 to 5 min
same,neurological deficits after traumatic spinal cord injury,[10],reduces neurological deficits
same,electrical activity and neurological recovery after brainstem compression,[11],improve electrical activity and neurological recovery
"NC(=O)[C@@H]1CCCN1C(=O)C1(NC(=O)[C@@H]2CC(=O)N2)CC1 [Compound 10b, N^1-[1-[N—[(S)-4-Oxo-Azetidine-2-Carbonyl]Amino]Cyclopropane-Carbonyl]Prolinamide]",performance deficits in the beamwalking task compared with saline vehicle,[3],attenuated
